# In patent publication US9440957B2, “Compounds and compositions for modulating EGFR Activity” (Novartis AG, priority 2012, dated 2016):
# Read-outs that look alike come from different tables or passages of the source.
# Assays:
# H3255 (EGFR L858R) = H3255 (EGFR L858R) (Homo sapiens, UniProt P00533, L858R); experiment: EGFR target modulation in H3255 cell line (phospho-EGFR Y1173 ELISA); type: cell-based
# In short: (§1)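 Readout: luminescent pY1173-EGFR sandwich ELISA on cell lysates. Treatment: compound, 3 h, 37 °C.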
# H1975 (EGFR L858/T790M) = H1975 (EGFR L858/T790M) (Homo sapiens, UniProt P00533, L858R/T790M); experiment: EGFR target modulation in H1975 cell line (phospho-EGFR Y1173 ELISA); type: cell-based
# In short: as §1
# HaCaT (EGFR WT) = HaCaT (EGFR WT) (Homo sapiens, UniProt P00533); experiment: EGFR target modulation in HaCaT (EGFR-WT) cell line (phospho-EGFR Y1173 ELISA); type: cell-based; conditions: value in parentheses
# Method: EGFR Target Modulation in HaCaT (EGFR-WT) Cell Line Tissue Culture. […] The serial diluted compounds were transferred to the plate containing cells by using a 50 nl Pin Head device (Perkin Elmer) and the cells were placed back in the incubator for 3 hours. […] Phospho-EGFR ([…]) ELISA. Solid white high-binding ELISA plates (Greiner #781074) were coated with 5 ug/ml anti-EGFR capture antibody (R&D Systems #AF231) overnight in 50 mM carbonate/bicarbonate pH 9.5 buffer. […] Wash steps were carried out with a Bio-Tek ELx405 SelectTM using 4 cycles of 100 ul TBS-T (20 mM Tris, 137 mM NaCl, 0.05% Tween-20) per well. […] Lysis was allowed to occur for 20 minutes on ice. A 25 ul aliquot was added to each well of the blocked ELISA plate and incubated overnight at 4° C. with gentle shaking. […] After washing, 1:2,000 anti-rabbit-HRP (Cell Signaling #7074) in 0.2% BSA/TBS-T was added and incubated for 1 hour at room temperature. Chemiluminescent detection was carried out with SuperSignal ELISA Pico substrate (ThermoScientific #37069). Signal was read on EnVision plate reader using built-in UltraLUM setting. Data Analysis. Control cells treated with EGF were set to 100% maximum response. […] With these parameters, the IC50's for each compound in each cell line was calculated using non-linear curve fitting analysis.
# EGFR(L858R/T790M) = target: T1, EGFR(L858R/T790M) (Homo sapiens, UniProt P00533, L858R/T790M); experiment: EGFR biochemical assay (HTRF), IC50 determinations
# T1 construct: purchased from Carna (GST-a.a. 669-1210)
# In short: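 Two formats were run: compound preincubated at room temperature with enzyme and biotin-TK peptide before ATP starts the reaction, or no preincubation with enzyme added last. Reactions ran 60 min at room temperature and were stopped with EDTA. Phosphopeptide was read by HTRF (PT66K/SAXL, 1 h).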
# HCC827 (Del E746-A750) = HCC827 (Del E746-A750) (Homo sapiens, UniProt P00533, DEL746-750); experiment: EGFR target modulation in HCC827 cell line (phospho-EGFR Y1173 ELISA); type: cell-based
# In short: as §1
# HEKn (EGFR WT) = HEKn (EGFR WT) (Homo sapiens, UniProt P00533); experiment: EGFR target modulation in HEKn (EGFR-WT) cell line (phospho-EGFR Y1173 ELISA); type: cell-based; conditions: value outside parentheses
# In short: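 Read-out was Y1173 phosphorylation, measured by chemiluminescent ELISA with anti-EGFR capture of lysates. HEKn keratinocytes (wild-type EGFR) were treated with compound for 3 h.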
# [1] = EGFR (L858R/T790M) with 90 min pre-incubation, read-out: IC50 (μM) Column B
# [2] = EGFR (L858R/T790M) with no pre-incubation, read-out: IC50 (μM) Column A
# H1975 (EGFR L858/T790M), sequence (P00533 25-1210 T790M/L858R): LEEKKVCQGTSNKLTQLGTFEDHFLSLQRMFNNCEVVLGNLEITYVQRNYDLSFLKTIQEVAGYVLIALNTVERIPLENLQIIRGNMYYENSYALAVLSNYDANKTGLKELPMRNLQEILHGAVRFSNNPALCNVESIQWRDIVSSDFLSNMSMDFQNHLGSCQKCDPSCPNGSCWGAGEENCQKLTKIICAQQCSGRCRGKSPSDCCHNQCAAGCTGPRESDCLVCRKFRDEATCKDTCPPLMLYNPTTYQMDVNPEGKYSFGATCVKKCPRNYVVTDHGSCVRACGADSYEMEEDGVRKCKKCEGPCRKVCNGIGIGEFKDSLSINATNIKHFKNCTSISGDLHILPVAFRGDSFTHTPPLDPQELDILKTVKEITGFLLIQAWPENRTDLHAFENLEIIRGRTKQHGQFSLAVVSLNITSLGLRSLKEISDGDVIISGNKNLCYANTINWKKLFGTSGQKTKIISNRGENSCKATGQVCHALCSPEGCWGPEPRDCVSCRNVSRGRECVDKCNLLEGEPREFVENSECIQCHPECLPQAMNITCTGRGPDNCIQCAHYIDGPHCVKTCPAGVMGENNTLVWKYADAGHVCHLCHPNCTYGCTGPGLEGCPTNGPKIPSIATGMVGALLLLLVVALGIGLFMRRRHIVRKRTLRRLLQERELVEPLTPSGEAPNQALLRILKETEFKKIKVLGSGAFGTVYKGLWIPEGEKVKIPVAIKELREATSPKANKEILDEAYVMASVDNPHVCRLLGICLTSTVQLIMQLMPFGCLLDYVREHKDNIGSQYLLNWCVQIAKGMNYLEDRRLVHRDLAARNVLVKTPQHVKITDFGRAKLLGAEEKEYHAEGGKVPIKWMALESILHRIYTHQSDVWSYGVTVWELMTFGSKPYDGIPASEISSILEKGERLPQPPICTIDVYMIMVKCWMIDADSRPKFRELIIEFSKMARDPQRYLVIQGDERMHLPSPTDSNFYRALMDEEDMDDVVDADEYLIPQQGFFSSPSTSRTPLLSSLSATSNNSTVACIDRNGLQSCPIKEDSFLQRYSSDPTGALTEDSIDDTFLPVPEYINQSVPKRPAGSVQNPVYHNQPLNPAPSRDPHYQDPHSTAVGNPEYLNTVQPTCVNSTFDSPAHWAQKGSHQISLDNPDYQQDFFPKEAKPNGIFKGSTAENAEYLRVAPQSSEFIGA
# H3255 (EGFR L858R), sequence (P00533 25-1210 L858R): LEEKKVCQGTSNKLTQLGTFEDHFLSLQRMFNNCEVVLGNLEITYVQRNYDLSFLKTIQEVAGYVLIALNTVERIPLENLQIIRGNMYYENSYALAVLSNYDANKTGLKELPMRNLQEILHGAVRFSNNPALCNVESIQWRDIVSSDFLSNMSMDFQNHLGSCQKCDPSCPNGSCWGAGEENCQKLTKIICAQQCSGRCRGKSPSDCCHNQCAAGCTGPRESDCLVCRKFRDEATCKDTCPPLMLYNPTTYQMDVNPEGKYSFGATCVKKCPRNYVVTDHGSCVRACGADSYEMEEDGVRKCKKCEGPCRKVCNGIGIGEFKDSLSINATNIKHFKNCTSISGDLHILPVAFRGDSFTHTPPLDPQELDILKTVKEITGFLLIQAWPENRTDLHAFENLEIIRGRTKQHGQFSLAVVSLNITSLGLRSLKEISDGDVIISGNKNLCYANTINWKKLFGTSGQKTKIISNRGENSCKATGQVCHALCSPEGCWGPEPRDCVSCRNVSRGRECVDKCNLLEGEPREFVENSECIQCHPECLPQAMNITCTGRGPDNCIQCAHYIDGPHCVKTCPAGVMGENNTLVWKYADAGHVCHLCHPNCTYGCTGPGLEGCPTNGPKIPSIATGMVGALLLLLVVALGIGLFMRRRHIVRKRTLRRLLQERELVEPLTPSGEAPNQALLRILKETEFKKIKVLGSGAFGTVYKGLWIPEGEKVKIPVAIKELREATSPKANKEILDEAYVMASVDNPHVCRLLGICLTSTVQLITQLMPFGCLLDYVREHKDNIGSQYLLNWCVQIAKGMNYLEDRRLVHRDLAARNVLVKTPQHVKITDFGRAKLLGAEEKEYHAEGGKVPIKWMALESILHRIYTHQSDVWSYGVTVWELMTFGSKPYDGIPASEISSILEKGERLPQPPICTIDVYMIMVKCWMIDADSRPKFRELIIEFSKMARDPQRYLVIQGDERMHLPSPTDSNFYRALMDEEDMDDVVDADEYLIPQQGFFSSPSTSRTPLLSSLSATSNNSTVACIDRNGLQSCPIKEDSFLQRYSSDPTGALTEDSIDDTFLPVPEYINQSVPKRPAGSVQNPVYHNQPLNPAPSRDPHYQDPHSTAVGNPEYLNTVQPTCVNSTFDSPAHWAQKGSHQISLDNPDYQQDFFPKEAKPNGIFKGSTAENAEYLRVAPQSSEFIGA
# T1 sequence (P00533 669-1210 T790M/L858R): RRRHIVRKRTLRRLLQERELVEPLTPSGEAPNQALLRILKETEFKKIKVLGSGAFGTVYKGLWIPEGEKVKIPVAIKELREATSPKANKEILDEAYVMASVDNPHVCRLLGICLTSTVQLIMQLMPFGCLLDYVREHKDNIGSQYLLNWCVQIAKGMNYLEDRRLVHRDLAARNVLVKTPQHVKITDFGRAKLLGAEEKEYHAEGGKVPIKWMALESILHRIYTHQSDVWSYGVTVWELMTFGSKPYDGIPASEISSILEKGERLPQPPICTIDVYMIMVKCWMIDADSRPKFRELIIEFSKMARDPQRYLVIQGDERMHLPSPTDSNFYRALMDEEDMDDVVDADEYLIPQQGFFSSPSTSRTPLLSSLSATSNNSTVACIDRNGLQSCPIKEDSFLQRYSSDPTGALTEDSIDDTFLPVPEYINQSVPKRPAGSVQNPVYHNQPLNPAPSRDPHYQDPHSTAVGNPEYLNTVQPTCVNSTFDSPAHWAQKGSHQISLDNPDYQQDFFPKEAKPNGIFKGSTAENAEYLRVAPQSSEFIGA
# HEKn (EGFR WT), sequence (P00533 25-1210): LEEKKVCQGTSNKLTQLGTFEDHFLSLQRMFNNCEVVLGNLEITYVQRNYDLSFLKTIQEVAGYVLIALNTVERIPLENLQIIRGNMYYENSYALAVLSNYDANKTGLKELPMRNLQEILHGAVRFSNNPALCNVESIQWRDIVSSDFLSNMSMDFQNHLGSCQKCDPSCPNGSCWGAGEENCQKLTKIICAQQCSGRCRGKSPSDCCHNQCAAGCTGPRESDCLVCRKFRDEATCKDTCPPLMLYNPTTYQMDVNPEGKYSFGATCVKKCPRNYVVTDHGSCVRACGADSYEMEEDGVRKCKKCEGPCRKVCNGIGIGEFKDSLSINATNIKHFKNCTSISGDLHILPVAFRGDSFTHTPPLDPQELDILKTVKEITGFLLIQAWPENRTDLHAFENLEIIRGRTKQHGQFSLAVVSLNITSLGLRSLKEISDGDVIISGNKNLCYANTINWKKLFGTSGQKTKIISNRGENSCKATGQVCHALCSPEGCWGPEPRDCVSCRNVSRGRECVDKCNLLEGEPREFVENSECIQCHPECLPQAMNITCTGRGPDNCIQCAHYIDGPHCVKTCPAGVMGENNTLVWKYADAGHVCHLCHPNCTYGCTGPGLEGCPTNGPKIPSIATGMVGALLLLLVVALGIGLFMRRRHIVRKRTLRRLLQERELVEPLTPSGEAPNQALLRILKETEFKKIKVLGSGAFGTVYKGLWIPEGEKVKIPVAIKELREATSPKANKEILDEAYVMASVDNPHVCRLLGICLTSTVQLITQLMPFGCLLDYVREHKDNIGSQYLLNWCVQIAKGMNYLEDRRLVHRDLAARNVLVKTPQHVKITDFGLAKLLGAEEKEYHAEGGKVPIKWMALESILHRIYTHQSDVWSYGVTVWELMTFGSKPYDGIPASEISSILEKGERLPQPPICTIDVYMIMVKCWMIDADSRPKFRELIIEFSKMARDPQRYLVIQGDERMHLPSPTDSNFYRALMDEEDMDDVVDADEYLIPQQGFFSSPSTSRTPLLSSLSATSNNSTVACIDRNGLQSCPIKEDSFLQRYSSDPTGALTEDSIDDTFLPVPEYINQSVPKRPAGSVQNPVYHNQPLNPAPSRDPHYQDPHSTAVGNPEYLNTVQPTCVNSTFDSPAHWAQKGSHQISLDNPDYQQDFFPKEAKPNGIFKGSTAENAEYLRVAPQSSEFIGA
Structure (SMILES),IC50 (H3255 (EGFR L858R)) [nM],IC50 (H1975 (EGFR L858/T790M)) [nM],IC50 (HaCaT (EGFR WT)) [nM],IC50 (EGFR(L858R/T790M); [1]) [µM],IC50 (EGFR(L858R/T790M); [2]) [µM],IC50 (HCC827 (Del E746-A750)) [nM],IC50 (HEKn (EGFR WT)) [nM]
"Cc1cc(C(=O)Nc2nc3cccc(Cl)c3n2[C@@H]2CCCCN(C(=O)/C=C/CN(C3CC3)C3CC3)C2)ccn1 [Example 16, (R,E)-N-(7-chloro-1-(1-(4-(dicyclopropylamino)but-2-enoyl)azepan-3-yl)-1H-benzo[d]imidazol-2-yl)-2-methylisonicotinamide]",60,58,1100,0.005,0.045,–,–
Cc1cc(C(=O)Nc2nc3cccc(Cl)c3n2[C@@H]2CCCCN(C(=O)/C=C/C(C)(C)N(C)C)C2)ccn1 [Example 3-18],719,1050,> 10000,0.108,0.135,480,–
"CN(C)C/C=C/C(=O)N1CCCCC(n2c(NC(=O)c3ccnc(P(C)(C)=O)c3)nc3cccc(Cl)c32)C1 (single isomer, unassigned) [Example 21-10B]",77,421,6090,0.014,0.222,–,–
"C=CC(=O)N1CCNCC(n2c(NC(=O)c3ccnc(C)c3)nc3cccc(Cl)c32)C1 (centres unmarked) [Example 13, N-(1-(1-acryloyl-1,4-diazepan-6-yl)-7-chloro-1H-benzo[d]imidazol-2-yl)-2-methylisonicotinamide]",312,113,> 10000,0.113,1.63,–,–
Cc1cc(C(=O)Nc2nc3cccc(Cl)c3n2[C@@H]2CCCCN(C(=O)/C=C/CNC(C)(C)C)C2)ccn1 [Example 17-191],3,2,59,< 0.001,0.004,–,–
Cc1cc(C(=O)Nc2nc3cccc(Cl)c3n2[C@H]2CCCCN(C(=O)/C=C/CN(C)C)C2)cc(C)n1 [Example 17-197],2000,935,> 10000,0.117,1.67,–,–
"CN(C)C/C=C/C(=O)N1CCCCC(n2c(NC(=O)c3ccnc(P(C)(C)=O)c3)nc3cccc(Cl)c32)C1 (single isomer, unassigned) [Example 21-10A]",1540,> 10000,> 10000,0.572,6.05,–,–
C=CC(=O)N1CCCC[C@@H](n2c(NC(=O)c3cc(C)nc(C)c3)nc3cc(CN4CC[C@@H](F)C4)cc(C)c32)C1 [Example 17-159],2,< 1,84,< 0.001,0.002,–,70
"Cc1cc(C(=O)Nc2nc3cccc(Cl)c3n2C2CCCCN(C(=O)/C=C/CN(C)C)C2)cc(P(C)(C)=O)n1 (single isomer, unassigned) [Example 21-9B]",312,314,> 10000,0.024,0.894,–,–
C/C=C/C(=O)N1CCCC[C@@H](n2c(NC(=O)c3cc(C)nc(C)c3)nc3cc(CN4CC[C@H](OC)C4)ccc32)C1 [Example 17-174],202,93,> 10000,0.01,0.21,–,> 10000
Cc1cc(C(=O)Nc2nc3cccc(Cl)c3n2[C@@H]2CCCCN(C(=O)C3=CCCN(C)C3)C2)ccn1 [Example 3-16],2530,899,> 10000,0.36,0.352,–,–
C=CC(=O)N1CCCC[C@@H](n2c(NC(=O)c3cc(C)nc(C)c3)nc3cc(CN4CC[C@H](F)C4)cc(C)c32)C1 [Example 17-158],2,< 1,67,< 0.001,0.002,–,82
C=CC(=O)N1CCCC[C@@H](n2c(NC(=O)c3cc(C)nc(C)c3)nc3cc(CN4CC[C@H](OC)C4)ccc32)C1 [Example 17-175],4,2,522,< 0.001,0.004,–,289
Cc1cc(C(=O)Nc2nc3cccc(Cl)c3n2[C@@H]2CCCCN(C(=O)/C=C/CN(C)C(=O)OC(C)(C)C)C2)ccn1 [Example 17-184],4840,3740,> 10000,5.84,16.1,–,–
Cc1cc(C(=O)Nc2nc3cccc(Cl)c3n2[C@@H]2CCCCN(C(=O)C3=CCN(C)CC3)C2)ccn1 [Example 3-17],6400,3480,> 10000,1.2,0.676,–,–
"Cc1cc(C(=O)Nc2nc3cccc(Cl)c3n2C2CCCCN(C(=O)/C=C/CN(C)C)C2)cc(P(C)(C)=O)n1 (single isomer, unassigned) [Example 21-9A]",6580,> 10000,> 10000,3.7,32.4,–,–
Cc1cc(C(=O)Nc2nc3cccc(Cl)c3n2[C@@H]2CCCCN(C(=O)/C=C/CN(C)C)C2)cc(P(C)(C)=O)n1 [Example 17-182],422,770,> 10000,0.022,0.472,–,–
"C=CC(=O)N1CCN(C(C)=O)CC(n2c(NC(=O)c3ccnc(C)c3)nc3cccc(Cl)c32)C1 (centres unmarked) [Example 14, N-(1-(1-acetyl-4-acryloyl-1,4-diazepan-6-yl)-7-chloro-1H-benzo[d]imidazol-2-yl)-2-methylisonicotinamide]",71,27,2060,0.009,0.16,–,–
Cc1cc(C(=O)Nc2nc3cccc(Cl)c3n2[C@@H]2CCCCN(C(=O)/C=C/CNC3(C)CC3)C2)ccn1 [Example 17-192],2,2,37,< 0.001,0.003,–,–
Cc1cc(C(=O)Nc2nc3cccc(Cl)c3n2[C@@H]2CCCCN(C(=O)/C=C/CNC3CC3)C2)ccn1 [Example 17-190],3,2,47,< 0.001,0.003,–,–
"C=CC(=O)N1CCN(C(=O)OC(C)(C)C)CC(n2c(NC(=O)c3ccnc(C)c3)nc3cccc(Cl)c32)C1 (centres unmarked) [Example 12, tert-butyl 4-acryloyl-6-(7-chloro-2-(2-methylisonicotinamido)-1H-benzo[d]imidazol-1-yl)-1,4-diazepane-1-carboxylate]",111,50,> 10000,0.016,0.271,–,–
